According to patent US20250230138A1, “COMPOUNDS HAVING A T-STRUCTURE FORMED BY AT LEAST FOUR CYCLES FOR USE IN THE TREATMENT OF CANCER AND OTHER INDICATIONS” (TheRas, Inc., priority 2022, published 2025):
pIC50: −log10 of the molar value. Read-outs that look alike come from different tables or passages of the source.

Assays:
[1] = molecular target: Cys242 in human PIK3CA (157-299) (Homo sapiens (Human), UniProt P42336); test: Covalent modification assay using MALDI-TOF MS; type: biochemical; conditions: 4 h reaction time point
Procedure, shortened: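 PIK3CA (157-299) at 3.33 μM or 1 μM in 20 mM HEPES, 150 mM NaCl, 2 mM MgCl2, pH 7.3 was incubated with compound (from 10 mM DMSO stocks) in the dark at room temperature for 15 min, 30 min, 2 h or 4 h. Linear-mode MALDI-TOF peak heights gave percent modification.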

[2] = test system: pAKT in BT474 cells; test: Cell-based pAKT HTRF assay in BT474 cells; conditions: BT474 cells, 4 hr incubation, read-out: pAKT inhibition IC50 in BT474 cells
Procedure, shortened: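 Cells are seeded on day 1 and dosed on day 2 with a 9-point curve (3 μM top, 3-fold). After 4 hr they are lysed and the lysate is mixed with d2- and Eu Cryptate-labelled antibodies. HTRF is read after 4–24 h at room temperature.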

[3] = 3.33 μM protein target, 1:7.5 protein to compound ratio (compounds 1-852)
[4] = 1 μM protein target, 1:5 protein to compound ratio (compounds 853-1279)

Chain of Cys242 in human PIK3CA (157-299) (P42336 157-299): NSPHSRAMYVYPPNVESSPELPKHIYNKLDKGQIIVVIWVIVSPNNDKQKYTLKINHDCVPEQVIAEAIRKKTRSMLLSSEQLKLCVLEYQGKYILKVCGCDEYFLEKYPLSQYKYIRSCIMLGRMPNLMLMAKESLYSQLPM

pIC50 ([2]; Compounds 10-999) | pIC50 ([2]; Compounds 1000-1279) | pIC50 ([2]; Homo sapiens, BT-474, Compounds 10-999) | SMILES | % of modification [1, 3] | % of modification [1, 4]
> 7.00 | – | – | C=CC(=O)N1CCn2nc(-c3nc(-c4ccc5c(c4)CNC5=O)c4ccsc4c3-c3ccc(F)cc3OC(C)C)cc2C1 [Compound 287] | A (percent of modification of PIK3CA protein ≥75%) | –
> 7.00 | – | – | C=CC(=O)N1CCn2nc(-c3nc(-c4cnc5cn(C)nc5c4)c4ccsc4c3-c3c(F)cc(F)cc3OCCOC)cc2C1C (centres unmarked) [Compound 912] | – | A (percent of modification of PIK3CA protein ≥75%)
> 7.00 | – | – | C=CC(=O)N1CCn2nc(-c3nc(-c4ccc(=O)n(C(C)C)c4)c4ccsc4c3-c3c(F)cc(F)cc3OCCO)cc2[C@H]1C [Compound 980] | – | A (percent of modification of PIK3CA protein ≥75%)
> 7.00 | – | – | C=CC(=O)N1CCn2nc(-c3nc(-c4ccc5c(c4)C(=O)NCC5)c4ccsc4c3-c3c(F)cc(F)cc3OCCO)cc2[C@H]1C [Compound 955] | – | A (percent of modification of PIK3CA protein ≥75%)
6.00 to 7.00 | – | – | C=C(F)C(=O)N1CCn2nc(-c3nc(-c4ccc(=O)n(C)c4)c4ccsc4c3-c3ccc(F)cc3OC(C)C)nc2C1 [Compound 267] | A (percent of modification of PIK3CA protein ≥75%) | –
– | > 7.00 | – | C=CC(=O)N1CCn2nc(-c3nc(-c4cnc(OCCN(C)C)nc4)c4ccsc4c3-c3c(F)cc(F)cc3OCCOC)cc2C1C (centres unmarked) [Compound 1056] | – | A (percent of modification of PIK3CA protein ≥75%)
6.00 to 7.00 | – | – | C=CC(=O)N1CC(n2cc(-c3nc(-c4ccc(S(=O)(=O)NC)cc4)c4ccsc4c3-c3ccc(F)cc3OC)cn2)C1 [Compound 196] | A (percent of modification of PIK3CA protein ≥75%) | –
> 7.00 | – | – | C=CC(=O)N1CCc2nc(-c3nc(-c4ccc(N)nc4)c4ccsc4c3-c3ccc(F)cc3OCCOC)sc2C1 [Compound 142] | A (percent of modification of PIK3CA protein ≥75%) | –
– | – | > 7.00 | C=CC(=O)N1Cc2cc(-c3nc(-c4ccc(P(C)(C)=O)cc4)c4ccsc4c3-c3c(F)cc(F)cc3OCCOC)nn2C[C@H]1C [Compound 800, 1-[(6R)-2-[7-[2,4-difluoro-6-(2-methoxyethoxy)phenyl]-4-(4-dimethylphosphorylphenyl)thieno[3,2-c]pyridin-6-yl]-6-methyl-6,7-dihydro-4H-pyrazolo[1,5-a]pyrazin-5-yl]prop-2-en-1-one] | A (percent of modification of PIK3CA protein ≥75%) | –
> 7.00 | – | – | C=CC(=O)N1CCn2nc(-c3nc(-c4ccc5nncn5c4)c4ccsc4c3-c3c(F)cc(F)cc3OCCO)cc2[C@H]1C [Compound 892] | – | A (percent of modification of PIK3CA protein ≥75%)
– | > 7.00 | – | C=CC(=O)N1CCn2nc(-c3nc(-c4cnc5c(c4)CN(C)CC5(F)F)c4ccsc4c3-c3c(F)cc(F)cc3OCCO)cc2C1C (centres unmarked) [Compound 1196] | – | A (percent of modification of PIK3CA protein ≥75%)
> 7.00 | – | – | C=CC(=O)N1Cc2cc(-c3nc(-c4cn(C)cn4)c4ccsc4c3-c3c(F)cc(F)cc3OCCO)nn2[C@@H](C)C1 [Compound 819] | A (percent of modification of PIK3CA protein ≥75%) | –
> 7.00 | – | – | C=CC(=O)N1CCn2nc(-c3nc(-c4ccc5cn(C)nc5c4)c4ccsc4c3-c3c(F)cc(F)cc3OCCO)cc2[C@@H]1C [Compound 780] | A (percent of modification of PIK3CA protein ≥75%) | –
6.00 to 7.00 | – | – | C=C(F)C(=O)N1CCn2nc(-c3nc(-c4ccc5c(c4)CNC5=O)c4ccsc4c3-c3c(F)cc(F)cc3OCC(F)F)cc2C1 [Compound 353] | B (50%<percent of modification <75%) | –
> 7.00 | – | – | C=CC(=O)N1CCn2nc(-c3nc(-c4ccc5ncn(C)c5c4)c4ccsc4c3-c3c(F)cc(F)cc3OCCOC)cc2[C@@H]1C [Compound 702] | A (percent of modification of PIK3CA protein ≥75%) | –
– | > 7.00 | – | C=CC(=O)N1CCn2nc(-c3nc(-c4cncc(CN(C)C)c4)c4ccsc4c3-c3c(F)cc(F)cc3OCCOC)cc2C1C (centres unmarked) [Compound 1141] | – | A (percent of modification of PIK3CA protein ≥75%)
> 7.00 | – | – | C=CC(=O)N1CCc2cc(-c3nc(-c4ccc5ncn(C)c5c4)c4ccsc4c3-c3c(F)cc(F)cc3OC(C)C)nn2CC1 [Compound 573] | A (percent of modification of PIK3CA protein ≥75%) | –
– | > 7.00 | – | C=CC(=O)N1CCn2nc(-c3nc(-c4ccc5c(c4)CCN(C)CC5)c4c(c3-c3c(F)cc(F)cc3OCCOC)CCC4)cc2[C@H]1C [Compound 1223] | – | A (percent of modification of PIK3CA protein ≥75%)
6.00 to 7.00 | – | – | C=CC(=O)N1CCc2ccc(-c3nc(-c4ccc5c(c4)CNC5=O)c4ccsc4c3-c3c(F)cc(F)cc3OCCO)cc2C1 [Compound 950] | – | D (percent of modification <25%)
– | > 7.00 | – | C=CC(=O)N1CCn2nc(-c3nc(-c4cc(F)c(=O)n(CC(F)F)c4)c4ccsc4c3-c3c(F)cc(F)cc3OCCOC)cc2C1C (centres unmarked) [Compound 1036] | – | A (percent of modification of PIK3CA protein ≥75%)
> 7.00 | – | – | C=C(F)C(=O)N1CCn2nc(-c3nc(-c4ccc5c(c4)CCN(C)C5)c4ccsc4c3-c3c(F)cc(F)cc3OC(C)C)nc2C1 [Compound 314] | A (percent of modification of PIK3CA protein ≥75%) | –
> 7.00 | – | – | C=CC(=O)N1CCn2nc(-c3nc(-c4ccc5ncc(=O)n(C)c5c4)c4ccsc4c3-c3c(F)cc(F)cc3OCCO)cc2[C@H]1C [Compound 979] | – | A (percent of modification of PIK3CA protein ≥75%)
6.00 to 7.00 | – | – | C=CC(=O)N1CCc2nc(-c3nc(-c4ccc5c(c4)CCNC5=O)c4ccsc4c3-c3c(F)cc(F)cc3OCCOC)sc2C1 [Compound 977] | – | A (percent of modification of PIK3CA protein ≥75%)
5.52 to 6.00 | – | – | C=CC(=O)N1CC(n2cc(-c3nc(C4=CCC5(CC4)CNC5)c4ccsc4c3-c3ccc(F)cc3OCCOC)cn2)C1 [Compound 145] | A (percent of modification of PIK3CA protein ≥75%) | –
– | > 7.00 | – | C=CC(=O)N1CCn2nc(-c3nc(-c4cncc(CCN(C)C)c4)c4ccsc4c3-c3c(F)cc(F)cc3OCCOC)cc2C1C (centres unmarked) [Compound 1245] | – | A (percent of modification of PIK3CA protein ≥75%)
> 7.00 | – | – | C=CC(=O)N1Cc2cc(-c3nc(-c4ccc5c(c4)CCN(C)C5)c4ccsc4c3-c3c(F)cc(F)cc3OCCO)nn2C[C@H]1C [Compound 512] | A (percent of modification of PIK3CA protein ≥75%) | –
> 7.00 | – | – | C=CC(=O)N1CCc2nc(-c3nc(-c4ccn(C)c(=O)c4)c4ccsc4c3-c3c(F)cc(F)cc3OC(C)C)sc2C1 [Compound 352] | A (percent of modification of PIK3CA protein ≥75%) | –
> 7.00 | – | – | C=CC(=O)N1Cc2cc(-c3nc(-n4cnc(C)c4)c4ccsc4c3-c3c(F)cc(F)cc3OCCOC)nn2C[C@H]1C [Compound 824] | A (percent of modification of PIK3CA protein ≥75%) | –
